Measurements published in patent US10065950B2, “Substituted thiazoles as HIV integrase inhibitors” (Japan Tobacco Inc., priority 2010, dated 2018).

Target: HIV-1 pNL4-3 integrase (Human immunodeficiency virus type 1 group M subtype B (isolate NY5) (HIV-1), UniProt P12497)
Assay: Determination of enzyme (HIV integrase) inhibitory activity
Assay type: biochemical
Details: calculated from inhibition rate (fluorescence)
Experimental: The following explains evaluation methods of the HIV integrase inhibitory activity of the compound of the present invention.
A full-length gene sequence (Accession No.: M19921) of HIV-1 pNL4-3 integrase was inserted into restriction enzyme Nde I and Xho I sites of plasmid pET21a(+) (manufactured by Novagen) to construct an integrase expression vector pET21a-IN-Wild type.
Escherichia coli recombinant BL21(DE3) transformed with plasmid pET21a-IN-Wild type obtained in (i) was shake cultured at 30° C. in a liquid medium containing ampicillin. When the culture reached the logarithmic growth phase, isopropyl-β-D-thiogalactopyranoside was added to promote expression of integrase gene. The culture was continued for 5 hr to promote accumulation of the integrase protein. The recombinant E. coli was collected in pellets by centrifugal separation and preserved at −80° C.
This Escherichia coli was suspended in Lysis buffer (50 mM Tris-HCl (pH 7.6), 10 mM MgCl2, 5 mM DTT), and disrupted by repeating treatments of pressurization and depressurization, and insoluble fraction was collected by centrifugation at 4° C., 18,000 rpm for 60 min. This was suspended in Lysis buffer containing a protease inhibitor, […] and 10 mM CHAPS were added, and the mixture was stirred at 4° C. for 30 min. Water-soluble fraction was collected by centrifugation at 4° C., 9,000 rpm for 30 min. The obtained fraction was diluted with a column buffer (50 mM Tris-HCl (pH 7.6), 1 mM DTT, 10% Glycerol, 10 mM CHAPS) to 5-fold, and the mixture was applied to heparin column (HiPrep 16/10 Heparin FF column: manufactured by GE Healthcare Bio-Sciences). Using a column buffer containing 1M NaCl, a protein was eluted with 0-1M NaCl concentration gradient, and an eluted fraction containing an integrase protein was collected. The obtained fraction was diluted 5-fold with a column buffer (50 mM Tris-HCl (pH 7.6), 1 mM DTT, 10% Glycerol, 10 mM CHAPS), and the mixture was applied to cation exchange column (Mono-S column: manufactured by GE Healthcare Bio-Sciences). Using a column buffer containing 1M NaCl, a protein was eluted with 0-1M NaCl concentration gradient, and an eluted fraction containing an integrase protein was collected. The obtained fractions of the integrase protein were collected, and preserved at −80° C.
The following DNA synthesized by FASMAC was dissolved in TE buffer (10 mM Tris-hydrochloric acid (pH 8.0), 1 mM EDTA) and mixed with donor DNA, target DNA, and each complementary strand (+ and − strands) to 1 μM. The mixture was heated at 95° C. for 5 min, 80° C. for 10 min, 70° C. for 10 min, 60° C. for 10 min, 50° C. for 10 min and 40° C. for 10 min and kept at 25° C. to give a double stranded DNA, which was used for the test.
Donor DNA (+strand having biotin attached to the 5′ terminal)
Target DNA (+, − strands both having digoxigenin attached to the 3′ terminal)
The donor DNA was diluted with TE buffer to 20 nM, of which 50 μL was added to each well of streptavidin-coated black plate (manufactured by PIAS Corporation) and allowed to adsorb at 37° C. for 20 min. The plate was washed with phosphate buffer (Dulbecco's PBS, Sanko Junyaku Co., Ltd.) containing 0.1% Tween 20 and phosphate buffer. Then, an enzyme reaction mixture (70 μL), a test substance (10 μL) diluted with the enzyme reaction mixture and 0.75 μM integrase protein (10 μL) were added to each well and the mixture was reacted at 37° C. for 60 min. composition of enzyme reaction mixture: 30 mM MOPS (3-morpholinopropanesulfonic acid), 5 mM magnesium chloride, 3 mM DTT (dithiothreitol), 0.1 mg/mL BSA (bovine serum albumin), 5% glycerol, 10% DMSO (dimethyl sulfoxide), 0.01% Tween 20.
Then, 25 nM target DNA (10 μL) was added, and the mixture was reacted at 37° C. for 20 min and washed with phosphate buffer containing 0.1% Tween 20 to stop the reaction. […]

Structure (SMILES)	IC50 [nM]
COCCN(C)C(=O)[C@]1(C)CN(C(C)C)C(=O)c2c(O)c(=O)c(-c3ncc(Cc4ccc(F)cc4)s3)cn21 [Example 235]	16
CC(C)CNC(=O)[C@@]1(C)CN(C(C)C)C(=O)c2c(O)c(=O)c(-c3nnc(Cc4ccc(F)cc4)s3)cn21 [Example 186]	18
CC(=O)CC1CN(C(C)C)C(=O)c2c(O)c(=O)c(-c3ncc(Cc4ccc(F)cc4F)s3)cn21 (stereo not drawn) [Example 151]	5.4
COC1CN(C(=O)[C@@]2(C)CN(C(C)C)C(=O)c3c(O)c(=O)c(-c4nnc(Cc5ccc(F)cc5)s4)cn32)C1 [Example 209]	12
CC(C)N1CC(C(=O)N(C)C)n2cc(-c3ncc(Cc4ccc(F)cc4F)s3)c(=O)c(O)c2C1=O (stereo not drawn) [Example 26]	7.6
COC[C@@H]1[C@H](C)n2cc(-c3nnc(Cc4ccc(F)cc4)s3)c(=O)c(O)c2C(=O)N1CC1CC1 [Example 257]	9.1
CC(C)N1CC(C)(C(=O)N(C)C)n2cc(-c3ncc(Cc4ccc(F)cc4)s3)c(=O)c(O)c2C1=O (stereo not drawn) [Example 107]	19
CCC(C)N1C(=O)c2c(O)c(=O)c(-c3nnc(Cc4ccc(F)cc4F)s3)cn2C[C@H]1COC (stereo partly drawn) [Example 146]	5.9
CC(C)N1CC(C)(CO)n2cc(-c3ncc(Cc4ccc(F)cc4F)s3)c(=O)c(O)c2C1=O (stereo not drawn) [Example 20]	17
CC[C@@H]1Cn2cc(-c3nnc(Cc4ccc(F)cc4)s3)c(=O)c(O)c2C(=O)N1CC1CC1 [Example 303]	5.8
CC(C)N1C(=O)c2c(O)c(=O)c(-c3nnc(Cc4ccc(F)cc4F)s3)cn2CC1CO (stereo not drawn) [Example 37]	6.3
COCCOC[C@H]1CN(CC(C)(C)C)C(=O)c2c(O)c(=O)c(-c3nnc(Cc4ccc(F)cc4F)s3)cn21 [Example 124]	15
CCCOC[C@H]1CN(C(C)C)C(=O)c2c(O)c(=O)c(-c3nnc(Cc4ccc(F)cc4)s3)cn21 [Example 363]	8.7
CC(C)N1CC(C)(C(=O)N(C)C)n2cc(-c3ncc(Cc4ccc(F)cc4F)s3)c(=O)c(O)c2C1=O (stereo not drawn) [Example 28]	15
COC[C@H]1Cn2cc(-c3nnc(Cc4ccc(F)cc4)s3)c(=O)c(O)c2C(=O)N1C(C)C [Example 95]	9.5
CC[C@]1(C(=O)N2CCC2)CN(C(C)C)C(=O)c2c(O)c(=O)c(-c3nnc(Cc4ccc(F)cc4)s3)cn21 [Example 392]	11
CCC(OC)[C@H]1CN(C(C)C)C(=O)c2c(O)c(=O)c(-c3nnc(Cc4ccc(F)cc4)s3)cn21 (stereo partly drawn) [Example 383]	7.9
CC(C)N1C[C@@](C)(C(=O)NC2CC2)n2cc(-c3ncc(Cc4ccc(F)cc4)s3)c(=O)c(O)c2C1=O [Example 245]	8.1
CC(C)N1C[C@@](C)(C(=O)N2CCCC2)n2cc(-c3nnc(Cc4ccc(F)cc4F)s3)c(=O)c(O)c2C1=O [Example 172]	14
CC(C)N1C[C@@](C)(C(=O)N2CCC2)n2cc(-c3ncc(Cc4ccc(F)cc4)s3)c(=O)c(O)c2C1=O [Example 223]	12
CC(C)N1C(=O)c2c(O)c(=O)c(-c3nnc(Cc4ccc(F)cc4F)s3)cn2C[C@H]1CN(C)C(=O)C(C)(C)C [Example 184]	6
COCCOCC1(C)CN(C(C)C)C(=O)c2c(O)c(=O)c(-c3ncc(Cc4ccc(F)cc4F)s3)cn21 (stereo not drawn) [Example 122]	19
CO[C@@H](C)COC[C@H]1CN(C2CC2)C(=O)c2c(O)c(=O)c(-c3nnc(Cc4ccc(F)cc4)s3)cn21 [Example 384]	12
CC(C)N1CC(CC(=O)NC2CC2)n2cc(-c3ncc(Cc4ccc(F)cc4F)s3)c(=O)c(O)c2C1=O (stereo not drawn) [Example 71]	11
COCC1(C)CN(C(C)C)C(=O)c2c(O)c(=O)c(-c3ncc(Cc4ccc(F)cc4)s3)cn21 (stereo not drawn) [Example 103]	18
CC(C)N1C(=O)c2c(O)c(=O)c(-c3nnc(Cc4ccc(F)cc4F)s3)cn2CC1C#N (stereo not drawn) [Example 64]	6.1

Structure (SMILES)	IC50 [nM]
CC(C)N1C[C@@](C)(C(=O)NCC2CC2)n2cc(-c3ncc(Cc4ccc(F)cc4)s3)c(=O)c(O)c2C1=O [Example 246]	8.4
CC(C)N1C(=O)c2c(O)c(=O)c(-c3nnc(Cc4ccc(F)cc4)s3)cn2C[C@@]1(C)C(=O)N1CCC1 [Example 310]	9.9
COC[C@@H]1CN(C(C)C)C(=O)c2c(O)c(=O)c(-c3nnc(Cc4ccc(F)cc4)s3)cn21 [Example 88]	8.7
CNC(=O)C1CN(C(C)C)C(=O)c2c(O)c(=O)c(-c3ncc(Cc4ccc(F)cc4F)s3)cn21 (stereo not drawn) [Example 22]	7
COCCOC[C@@H]1Cn2cc(-c3nnc(Cc4ccc(F)cc4F)s3)c(=O)c(O)c2C(=O)N1CC(C)C [Example 48]	6.9
C[C@H](C1CC1)N1C[C@](C)(C(=O)N2CCC2)n2cc(-c3ncc(Cc4ccc(F)cc4)s3)c(=O)c(O)c2C1=O [Example 280]	16
O=C1c2c(O)c(=O)c(-c3nnc(Cc4ccc(F)cc4F)s3)cn2C2(CCOCC2)CN1C1CC1 [Example 30]	9
COC[C@H]1CN(C(C)C)C(=O)c2c(O)c(=O)c(-c3nnc(Cc4ccc(Cl)cc4F)s3)cn21 [Example 229]	12
CNC(=O)C1(C)CN(C(C)C)C(=O)c2c(O)c(=O)c(-c3ncc(Cc4ccc(F)cc4)s3)cn21 (stereo not drawn) [Example 104]	15
CC(C)[C@@H]1Cn2cc(-c3nnc(Cc4ccc(F)cc4)s3)c(=O)c(O)c2C(=O)N1C(C)C [Example 221]	8.4
CC(C)N1C[C@@](C)(C(=O)N(C)C)n2cc(-c3nnc(Cc4ccc(F)cc4F)s3)c(=O)c(O)c2C1=O [Example 171]	16
CCN1C(=O)c2c(O)c(=O)c(-c3nnc(Cc4ccc(F)cc4)s3)cn2C[C@H]1C [Example 328]	7.1
CCN1C(=O)c2c(O)c(=O)c(-c3ncc(Cc4ccc(F)cc4)s3)cn2C[C@@]1(C)C(=O)NC [Example 252]	9.2
CC(C)N1C[C@@H](C)n2cc(-c3nnc(Cc4ccc(F)cc4F)s3)c(=O)c(O)c2C1=O [Example 132]	9.1
CCOC[C@H]1CN(C(C)(C)C)C(=O)c2c(O)c(=O)c(-c3nnc(Cc4ccc(F)cc4)s3)cn21 [Example 361]	15
CC(C)N1C[C@H](C(C)(C)C)n2cc(-c3nnc(Cc4ccc(F)cc4)s3)c(=O)c(O)c2C1=O [Example 193]	11
COC[C@@H]1Cn2cc(-c3nnc(Cc4ccc(F)c(F)c4)s3)c(=O)c(O)c2C(=O)N1C(C)C [Example 150]	6.1
CCN1C[C@](C)(C(=O)N2CC(OC)C2)n2cc(-c3ncc(Cc4ccc(F)cc4)s3)c(=O)c(O)c2C1=O [Example 263]	9
COCCOC[C@H]1CN(CC(C)C)C(=O)c2c(O)c(=O)c(-c3nnc(Cc4ccc(F)cc4F)s3)cn21 [Example 45]	11
COC[C@H]1Cn2cc(-c3nnc(Cc4ccc(F)cc4F)s3)c(=O)c(O)c2C(=O)N1C(C)C [Example 96]	6.7
CNC(=O)[C@]1(C)CN(C(C)C)C(=O)c2c(O)c(=O)c(-c3nnc(Cc4ccc(F)cc4F)s3)cn21 [Example 190]	11
CC(C)N1CC(CC(=O)N2CCOCC2)n2cc(-c3ncc(Cc4ccc(F)cc4F)s3)c(=O)c(O)c2C1=O (stereo not drawn) [Example 72]	11
CC(C)N1C(=O)c2c(O)c(=O)c(-c3nnc(Cc4ccc(F)cc4F)s3)cn2CC1CC(=O)N(C)C (stereo not drawn) [Example 75]	9.1
CCN1C(=O)c2c(O)c(=O)c(-c3ncc(Cc4ccc(F)cc4)s3)cn2C[C@]1(C)C(=O)N1CCCC1 [Example 294]	11
CCNC(=O)[C@]1(C)CN(C(C)C)C(=O)c2c(O)c(=O)c(-c3nnc(Cc4ccc(F)cc4F)s3)cn21 [Example 174]	14
